Experimental data from patent publication US20260069671A1, “MICELLE COMPRISING AMPHIPHILIC PEPTIDE, AND ANTIGEN CARRIER NANOPARTICLE USING SAME” (RTAB CO., LTD., priority 2022, published 2026).

Columns and labels:
[1] = Nanoparticle size measurement with Zetasizer Nano ZS; type: physicochemical; settings: diluted in ultrapure water, room temperature, triplicate mean +/- standard deviation
Protocol: Recombinant amphiphilic peptides and hapten peptides were produced and provided by Anygen in Gwangju, Korea. In order to prepare nanoparticles (particulate soluble hapten) using amphiphilic peptides, amphiphilic peptides (peptides of SEQ ID NOs: 1 to 4, respectively) were dissolved in distilled water at a concentration of 4 mg/mL. Then, hapten peptides (peptides of SEQ ID NOs: 5 to 11, respectively) were dissolved in distilled water at a concentration of 0.5 mg/mL. Afterwards, a fixed amount of hapten (50 μg) was mixed with two different amounts of amphiphilic peptide at a ratio of 3:1 and 1:3 (w/w) and incubated for 30 minutes at room temperature (25° C.).
In order to characterize the sizes of amphiphilic peptides and nanoparticles, the diameters of micelles and nanoparticles formed by amphiphilic peptides (carriers) were measured with a Zetasizer Nano ZS system (Malvern Instruments, Malvern, UK). After digestion, the micelle stock solution was added to the cuvette. After 30-minute incubation, nanoparticles were diluted to a final volume of 1 mL. The average size was then analyzed with Dispersion Technology software 4.3. Nanoparticles were diluted using ultrapure water (refractive index 1.33, viscosity 0.89) and used for analysis at room temperature. Observations were presented as triplicate means +/−standard deviation.

BALB/c mice [2] = assay: ELISA of hapten peptide-specific IgG/IgM in blood of immunized mice; type: in vivo, mouse; settings: FIG. 6
Protocol: (§1) Female BALB/C mice were purchased from Nara Biotech, Seoul, Korea, were 6 weeks old, and were bred under pathogen-free conditions. This study was conducted in accordance with the strict guidelines for the care and use of laboratory animals of the National Institutes of Health. The protocol was approved by the Animal Care Committee of Hanyang University Animal Hospital. For immunization, nanoparticles were emulsified with aluminum hydroxide (20 mg/100 μL, Sigma-Aldrich, St Louis, MO, USA). The mice were injected with 150 μg carrier dissolved in 150 μL phosphate buffered saline (PBS). The mice were injected with 50 μg hapten dissolved in 150 μL PBS. The mice were injected with 3:1 (w/w) nanoparticles (150 μg carrier and 50 μg hapten) combined with 150 μL PBS and 40 mg aluminum hydroxide. The mice were injected with 1:3 (w/w) nanoparticles (16.67 μg carrier and 50 μg hapten) combined with 150 μL PBS and 40 mg aluminum hydroxide. All groups were injected by intraperitoneal route and again on day 21. Blood was collected through the jugular vein twice a week and centrifuged at 2,000 g for 20 minutes. Serum was collected from centrifuged blood and frozen at −20° C. until being analyzed by ELSIA. The mice were sacrificed on day 35. Whole blood was collected and centrifuged at 2,000 g for 20 minutes. Serum was collected from centrifuged blood and frozen at −20° C. until being analyzed by dot blot. […]

BALB/c mice [3] = assay: Antibody detection by dot blot in serum of immunized mice; type: in vivo, mouse; settings: serum of day 35, serially diluted recombinant protein, FIG. 10
Protocol: as §1, with “The mice were injected with 1:3 (w/w) nanoparticles (16.67 μg carrier and 50 μg hapten) combined with 150 μL PBS and 40 mg aluminum hydroxide. All groups were injected by intraperitoneal route and again on day 21. Blood was collected through the jugular vein twice a week and centrifuged at 2,000 g for 20 minutes.” left out, “The mice were sacrificed on day 35. Whole blood was collected and centrifuged at 2,000 g for 20 minutes.” left out
For determination of nanoparticle (or hapten peptide)-specific antibodies, serial dilutions of the recombinant protein were seeded on PVDF membranes at a concentration of 1.2 μg/μL to 12 ng/μL. […] Afterwards, the enhanced chemiluminescence solution (ECL) was treated with a membrane and directly analyzed with chemiscope 3400 (CLINX, China). […]

[4] = tested on: hapten and CD8 specific T cells; assay: Live cell flow cytometry of hapten-specific cytotoxic T cells in splenocytes of immunized mice; type: in vivo, mouse
Protocol: as §1, with “All groups were injected by intraperitoneal route and again on day 21. Blood was collected through the jugular vein twice a week and centrifuged at 2,000 g for 20 minutes.” left out, “The mice were sacrificed on day 35. Whole blood was collected and centrifuged at 2,000 g for 20 minutes.” left out
(§2) In order to identify nanoparticle (or hapten peptide)-specific lymphocyte populations, live cell flow cytometry was performed. […] After rinsing, the cells were filtered through a 40 μm cell strainer and counted. […]

[5] = tested on: CD19 positive B cells reacting with DDOST protein labeled with Alexa 647; assay: Live cell flow cytometry of hapten-specific B cells in splenocytes of immunized mice; type: in vivo, mouse; settings: FIG. 11
Protocol: as §1, with “All groups were injected by intraperitoneal route and again on day 21. Blood was collected through the jugular vein twice a week and centrifuged at 2,000 g for 20 minutes.” left out, “The mice were sacrificed on day 35. Whole blood was collected and centrifuged at 2,000 g for 20 minutes.” left out
as §2

mice = assay: Comparison of antibodies induced by nanoparticles and by the KLH conjugate method (FIG. 7); type: in vivo, mouse; settings: compared with keyhole limpet hemocyanin method
Protocol: In addition, when the antibodies identified by Western blot were pre-reacted with the incomplete water-soluble antigen (lower panel of FIG. 7), all bands disappeared, confirming that all antibodies that were produced were specifically generated against the incomplete water-soluble antigen. After completion of the experiment, the spleens of the used animals were removed, splenocytes were isolated, and the analysis of B cells and T cells was performed through flow cytometry.

Row | Substance | Z-ave [1] [nm·days] | expression of hapten peptide-specific IgG and IgM antibodies in mouse blood (BALB/c mice [2]) | hapten peptide-specific IgG dots (dot blot) (BALB/c mice [3]) | change in proportion of CD8 T cells reacting to the target protein ([4]; FIG. 12) | hapten and CD8 specific T cells, lower gating group ([4]; splenocytes day 35, FIG. 12) [%] | change in ratio of B cells responding to the target protein [5] | hapten-specific B cells, lower gating group ([5]; splenocytes day 35, Alexa 647 positive channel) [%] | antibody production (FIG. 7, top panel) (mice)
1 | RRRVVVVVV (micelle self-assembly) [Carrier, amphiphilic peptide of three arginines and six valines forming micelles by self-assembly] | 193.8 ± 97.3 | no significant increase | no concentrated dots | did not show significant changes | 0.78 | no significant change | 15.1 | 
2 | keyhole limpet hemocyanin |  |  |  |  |  |  |  | antibodies were produced
